Source: patent US20170211012A1, “METHOD OF […] FROM MICROBES” (priority 2014, published 2017)
Values joined by “and” are separate entries in the source; they are usually repeats but may differ in a detail not shown here. Equal entries are not always repeated.

Tested on: Vibrio cholerae
Experiment: Colistin MIC against Vibrio cholerae strains
Type: cell-based

In the case of colistin, the “Colistin MIC” value (V. cholerae strain 32-14, O antigen not given) is reported as over 250 mg/L, the “Colistin MIC” value (V. cholerae strain 33-36, O antigen O-1) is reported as over 250 mg/L and the “Colistin MIC” value (V. cholerae strain 35-44, O antigen O-1) is reported as over 250 mg/L. The “Colistin MIC” value (V. cholerae strain 50-1, O antigen O-1) was 4 mg/L and 8 mg/L, the “Colistin MIC” value (V. cholerae strain 51-2, O antigen O-1) was 4 mg/L and the “Colistin MIC” value (V. cholerae strain 52-4, O antigen O-1) was 4 mg/L. For the same substance, the “Colistin MIC” value (V. cholerae strain 57-11, O antigen O-139) was 4 mg/L, the “Colistin MIC” value (V. cholerae strain 58-12, O antigen O-1) was 125 mg/L and the “Colistin MIC” value (V. cholerae strain 79-35, O antigen O-1) was over 250 mg/L. For the same substance, the “Colistin MIC” value (V. cholerae strain 114/98931, O antigen O-1) was 125 mg/L, the “Colistin MIC” value (V. cholerae strain 461/99053, O antigen O-1) was over 250 mg/L and the “Colistin MIC” value (V. cholerae strain 781, O antigen O-1) was over 250 mg/L. For the same substance, the “Colistin MIC” value (V. cholerae strain 1837, O antigen O-139) was over 250 mg/L, the “Colistin MIC” value (V. cholerae strain FMU-089933, O antigen O-139) was 31.5 mg/L and the “Colistin MIC” value (V. cholerae strain M-702-3, O antigen O-1) was over 250 mg/L. The “Colistin MIC” value (V. cholerae strain N16117, O antigen O-1) was over 250 mg/L, the “Colistin MIC” value (V. cholerae strain N16861, O antigen O-1) was over 250 mg/L and the “Colistin MIC” value (V. cholerae strain NG288/36, O antigen O-139) was over 250 mg/L. For the same substance, the “Colistin MIC” value (V. cholerae strain NG368/36, O antigen O-139) was over 250 mg/L, the “Colistin MIC” value (V. cholerae strain NRU-20455, O antigen O-139) was 8 mg/L and the “Colistin MIC” value (V. cholerae strain NRU-20461, O antigen O-139) was 8 mg/L and 4 mg/L. For the same substance, the “Colistin MIC” value (V. cholerae strain O-139 Argentina, O antigen O-139) was over 250 mg/L.
